Data published in patent US20240245677A1, “SELECTED COMPOUNDS FOR TARGETED DEGRADATION OF BRD9” (C4 THERAPEUTICS, INC., priority 2021, published 2024).
Values after ≈ are worked out from the molar mass of the structure shown. Where two headings read alike, the source gives them in different places.

How the values were obtained:
[1] = Bulk stability study (1 week stress conditions; drying); settings: one week
[2] = Solubility study in aqueous media at 37° C.
Photostability study = settings: 1.2 million lux-hrs at 25° C., open container
[3] = Variable humidity XRPD (VH-XRPD) experiments; format: physicochemical
Protocol: Based on DVS results, variable humidity XRPD was conducted for Pattern A at different humidity conditions, including 40%, 70%, 90%, 70%, 40%, 20%, 0%, 40% RH conditions.
Based on DVS results, variable humidity XRPD was conducted for Pattern N, at different humidity conditions, including 40%, 70%, 90%, 70%, 40%, 20%, 0%, 40% RH conditions.

[4] = Variable temperature XRPD (VT-XRPD) experiments; format: physicochemical
Protocol: To investigate form conversion behavior, variable temperature XRPD experiments were conducted for hydrate Pattern A, hydrate Pattern C, hydrate Pattern F and hetero-solvate Pattern L.
Based on DSC and TGA results, variable temperature XRPD was conducted for Pattern A, at different temperatures, including 25° C., 110° C. and 25° C.
Based on DSC and TGA results, variable temperature XRPD was conducted for Pattern B, at different temperatures, including 25° C., 80° C., 130° C. and 25° C. The sample after heating-cooling was placed at 25° C./75% RH condition for 1 day and investigated by XRPD.
Based on DSC and TGA results, variable temperature XRPD was conducted for Pattern C, at different temperatures, including 25° C., 110° C. and 25° C.
Based on DSC and TGA results, variable temperature XRPD was conducted for Pattern F at different temperatures, including 25° C., 110° C. and 25° C. The sample after heating-cooling was placed at 25° C./75% RH condition for 1 day and investigated by XRPD.
Based on DSC and TGA results, variable temperature XRPD was conducted for Pattern L, at different temperatures, including 25° C., 100° C., 140° C., 180° C. and 25° C. The sample after heating-cooling was placed at 25° C./92% RH condition for 24 h and investigated by XRPD.

[5] = Hygroscopicity by DVS at 25° C.; format: physicochemical; settings: for water uptake: DVS 25° C.
Protocol: Hygroscopicity of Form A and Form N was investigated by DVS at 25° C. […] Form A converted to Form K after the DVS test. Form K is a metastable hydrate. It reverted back to Form A after exposure to ambient condition.
Hygroscopicity of the free base Pattern A* and the urea cocrystal Form P were evaluated by DVS at 25° C.

physchem = settings: 37 °C, thermodynamic from solid
[6] = pH 6.5
[7] = pH 4.5, 50 mM acetate buffer, 24 h

## COc1cc(-c2cn(C)c(=O)c(C)c2C)cc(OC)c1CN1CC[C@H](N2CCN(c3ccc(N[C@H]4CCC(=O)NC4=O)cc3F)CC2)C(F)(F)C1 [Pattern A*]
[1]; 25° C./92% RH open, 40° C./75% RH open, 60° C. tight container
  chemical stability: good chemical stability
[1]; 25° C./92% RH, open container
  physical stability: agglomeration
[1]; 40° C./75% RH, open container
  physical stability: physically stable
[1]; 60° C., tight container
  physical stability: crystallinity decrease
[2]; FaSSIF-v1 (pH 6.5)
  Solubility: low solubility (close to LOQ)
[2]; FaSSIF-v1, pH 6.5, 2 h
  pH: pH: 6.5
[2]; FaSSIF-v1, pH 6.5, 2 h, target 10 mg/5 mL, LOQ: 50 μg/mL
  Solubility: <LOQ
[2]; FaSSIF-v1, pH 6.5, 24 h
  XRPD of residual solids: No form change
  pH: pH: 6.5
[2]; FaSSIF-v1, pH 6.5, 24 h, target 10 mg/5 mL, LOQ: 50 μg/mL
  Solubility: 80 µg/mL (≈ 113 µM)
[2]; FeSSIF-v1, pH 5.0, 2 h
  pH: pH: 5.0
[2]; FeSSIF-v1, pH 5.0, 2 h, target 10 mg/5 mL, LOQ: 50 μg/mL
  Solubility: 170 µg/mL (≈ 239 µM)
[2]; FeSSIF-v1, pH 5.0, 24 h
  pH: pH: 5.0
[2]; FeSSIF-v1, pH 5.0, 24 h, target 10 mg/5 mL, LOQ: 50 μg/mL
  Solubility: 210 µg/mL (≈ 295 µM)
[2]; SGF, pH 1.8, 2 h
  pH: pH: 2.4
[2]; SGF, pH 1.8, 2 h, target 10 mg/5 mL, LOQ: 50 μg/mL
  Solubility: >2000 µg/mL
[2]; SGF, pH 1.8, 24 h
  pH: pH: 2.4
[2]; SGF, pH 1.8, 24 h, target 10 mg/5 mL, LOQ: 50 μg/mL
  Solubility: >2000 µg/mL
[2]; pH 1.0 (0.1N HCl), 2 h
  pH: pH: 1.0
[2]; pH 1.0 (0.1N HCl), 2 h, target 10 mg/5 mL, LOQ: 50 μg/mL
  Solubility: >2000 µg/mL
[2]; pH 1.0 (0.1N HCl), 24 h
  pH: pH: 1.0
[2]; pH 1.0 (0.1N HCl), 24 h, target 10 mg/5 mL, LOQ: 50 μg/mL
  Solubility: >2000 µg/mL
[2]; pH 4.5, 50 mM acetate buffer, 2 h
  pH: pH: 4.5
[2]; pH 4.5, 50 mM acetate buffer, 2 h, target 10 mg/5 mL, LOQ: 50 μg/mL
  Solubility: 260 µg/mL (≈ 366 µM)
[2]; [7]
  XRPD of residual solids: No form change
  pH: pH: 4.5
[2]; pH 4.5, 50 mM acetate buffer, 24 h, target 10 mg/5 mL, LOQ: 50 μg/mL
  Solubility: 120 µg/mL (≈ 169 µM)
Photostability study
  degradation after exposure to light: ~1%
[3]; 0% RH
  XRPD: Pattern J
[3]; 0% RH hold 6 h
  XRPD: Pattern J
[3]; 0% RH hold 2 days
  XRPD: Pattern J
[3]; 20% RH
  XRPD: Pattern A
[3]; 40% RH (after 90% RH, falling)
  XRPD: Pattern A
[3]; 40% RH (first step)
  XRPD: Pattern A
[3]; 40% RH (last step, after 0% RH)
  XRPD: Pattern A
[3]; 70% RH (after 90% RH)
  XRPD: Metastable Pattern K
[3]; 70% RH (humidity rising)
  XRPD: Metastable Pattern K
[3]; 90% RH
  XRPD: Metastable Pattern K
[4]; 25° C. (start)
  XRPD: Pattern A
[4]; 25° C./50% RH hold 2 h
  XRPD: Pattern A
[4]; Cool to 25° C.
  XRPD: Metastable Pattern J
[4]; Heat to 110° C.
  XRPD: Metastable Pattern J
[5]; DVS
  water uptake from 40% RH to 95% RH: 6.0% water uptake from
[5]; 95% RH
  water uptake: about 6.0%
[5]; DVS, 0% RH
  1st desorp. (%): 0.0%
  2nd sorp. (%): 0.0%
[5]; DVS, 10% RH
  1st desorp. (%): 1.1%
  2nd sorp. (%): 1.0%
[5]; DVS, 20% RH
  1st desorp. (%): 1.8%
  2nd sorp. (%): 1.5%
[5]; DVS, 30% RH
  1st desorp. (%): 4.5%
  2nd sorp. (%): 2.1%
[5]; DVS, 40% RH
  1st desorp. (%): 6.3%
  1st sorp. (%): 4.6%
  2nd desorp. (%): 6.6%
  2nd sorp. (%): 3.6%
[5]; DVS, 50% RH
  1st desorp. (%): 8.5%
  1st sorp. (%): 5.2%
  2nd desorp. (%): 8.5%
  2nd sorp. (%): 5.8%
[5]; DVS, 60% RH
  1st desorp. (%): 9.4%
  1st sorp. (%): 6.9%
  2nd desorp. (%): 9.4%
  2nd sorp. (%): 7.7%
[5]; DVS, 70% RH
  1st desorp. (%): 9.7%
  1st sorp. (%): 9.1%
  2nd desorp. (%): 9.7%
  2nd sorp. (%): 9.3%
[5]; DVS, 80% RH
  1st desorp. (%): 1.0%
  1st sorp. (%): 9.8%
  2nd desorp. (%): 10.0%
  2nd sorp. (%): 9.8%
[5]; DVS, 90% RH
  1st desorp. (%): 10.3%
  1st sorp. (%): 10.3%
  2nd desorp. (%): 10.3%
  2nd sorp. (%): 10.2%
[5]; DVS, 95% RH
  1st desorp. (%): 10.6%
  1st sorp. (%): 10.6%
  2nd desorp. (%): 10.5%
  2nd sorp. (%): 10.5%

## COc1cc(-c2cn(C)c(=O)c(C)c2C)cc(OC)c1CN1CC[C@H](N2CCN(c3ccc(N[C@H]4CCC(=O)NC4=O)cc3F)CC2)C(F)(F)C1 [Form P]
physchem; pH 1, simulated gastric fluid
  Solubility: > 2000 µg/mL
physchem; pH 1.8, simulated gastric fluid
  Solubility: > 2000 µg/mL
physchem; pH 4.5, aqueous buffer
  Solubility: 100 to 300 µg/mL (≈ 141 to 422 µM)
physchem; pH 5, fessif
  Solubility: 100 to 300 µg/mL (≈ 141 to 422 µM)
[6]
  Solubility: low solubility (close to LOQ)
[5]; 95% RH
  water uptake: 3.1%
[5]; below 90% RH
  water uptake: 1.6%
